Measurements from patent publication US12297210B2, “Naphthyridine compounds and uses thereof” (Genentech, Inc., priority 2018, dated 2025).

Tests used:
[1] = test system: primary human pan T cells; test: Human T-Cell IL2 Induction Assay; assay type: cell-based; conditions: assayed concentration 0.31 μM; anti-CD3/anti-CD28 stimulated primary human pan T cells
Protocol: Example B3: Human T-Cell IL2 Induction Assay
Anti-CD3 and anti-CD28 activates TCR signaling in primary human pan T cells leading to IL-2 promoter induction. Secreted IL-2 in cell culture supernatant is detected by electrochemiluminescence using a capture antibody against IL-2 and an anti-IL-2 antibody labeled with SULFO-tag.
Incubate primary human pan T cells with varying concentrations of test compounds for 30 minutes in a humidified incubator at 37° C. and 5% CO2. Transfer cells to a plate pre-coated with a fixed concentration of anti-human CD3 (determined separately for each donor lot) and add soluble anti-human CD28 (final concentration=1 μg/ml). Stimulate cells in a humidified incubator at 37° C. and 5% CO2 for 4 hours. Transfer 25 μl of supernatant to a MSD single spot plate pre-coated with an anti-human IL-2 antibody. Incubate MSD plate overnight at 4° C. with gentle shaking. Wash MSD plate 4× with wash buffer. Add SULFO-tagged detection antibody at a 1:50 dilution and incubate at room temperature shaking for 2 hours. Wash MSD plate 4× with wash buffer and add 150 μl 2×MSD read buffer. Read on an MSD instrument. […]
Exemplary compounds of Formula (I) were tested in the human T-cell IL-2 induction assays. The % increase measured for IL-2 in cells treated by the test compounds relative to untreated cells are provided in Table B2 for certain compounds.

[2] = molecular target: T1, HPK full length, T165E S171E (Homo sapiens, UniProt Q92918, S171E/T165E); test: HPK1-FL HTRF Enzymatic Assay ("HTRF"); assay type: biochemical; conditions: ATP 1 mM, read-out: HPK1 Ki (nM) H = HTRF
T1 construct: HPK full length, T165E S171E: 0.125 nM
Protocol: Example B1: HPK1-FL HTRF Enzymatic Assay (“HTRF”)
HPK-FL enzyme phosphorylates Biotin-SLP-76 substrate in the presence of ATP at 1 mM and varying concentrations of test compound. Product is detected by FRET using Eu-anti-pSLP76 Ab and SA-XL665. Also see www.cisbio.com/HTRF for additional HTRF technology information.
• Echo555 compound dispenser • Agilent Bravo • Perkin Elmer Envision Final Assay Conditions: • HPK full length, T165E S171E: 0.125 nM • Biotin-SLP76: 100 nM • ATP: 1 mM (ATP Km=20 μM) • Eu-anti-pSLP76: 2 nM • SA-XL665: 8.3 nM • Preincubation time: 30 min • Kinase reaction time: 60 min • Temperature: ambient • Total volume: 12 μl • ATP^app Km: 17.7 μM Materials: • Assay plate: White ProxiPlate 384 F (PerkinElmer cat #6008289) • Kinase: HPK full length double mutant • Substrate: Biotin-SLP76 • ATP: 100 mM ATP • BSG: 2% BSG • DMSO: DMSO(Sigma cat #34869-100ML) • Reaction Buffer: H2O/50 mM HEPES, pH 7.5/10 mM MgCl2/2 mM TCEP/0.01% Brij-35/0.01% BSG • Detection mix: Eu-anti-pSLP76/SA-XL665 (Cisbio, #610SAXAC) Assay Procedure Ki Determination:
To a 384 well Proxiplate with 80 nL compound or DMSO spotted on was added 4 μl/well kinase mix. The mixture was preincubated for 30 minutes and then 4 μl/well substrate mix was added. The solution was incubated for 60 min and then 4 μl/well detection mix was added. The solution was incubated for another 60 min. The plates were then loaded onto a Perkin Elmer Envision and the TR-FRET signal was measured at 615 and 665 nm. A ratio of […] was used to calculate the % activity at each concentration of compound.

T1 sequence (Q92918 whole entry T165E/S171E): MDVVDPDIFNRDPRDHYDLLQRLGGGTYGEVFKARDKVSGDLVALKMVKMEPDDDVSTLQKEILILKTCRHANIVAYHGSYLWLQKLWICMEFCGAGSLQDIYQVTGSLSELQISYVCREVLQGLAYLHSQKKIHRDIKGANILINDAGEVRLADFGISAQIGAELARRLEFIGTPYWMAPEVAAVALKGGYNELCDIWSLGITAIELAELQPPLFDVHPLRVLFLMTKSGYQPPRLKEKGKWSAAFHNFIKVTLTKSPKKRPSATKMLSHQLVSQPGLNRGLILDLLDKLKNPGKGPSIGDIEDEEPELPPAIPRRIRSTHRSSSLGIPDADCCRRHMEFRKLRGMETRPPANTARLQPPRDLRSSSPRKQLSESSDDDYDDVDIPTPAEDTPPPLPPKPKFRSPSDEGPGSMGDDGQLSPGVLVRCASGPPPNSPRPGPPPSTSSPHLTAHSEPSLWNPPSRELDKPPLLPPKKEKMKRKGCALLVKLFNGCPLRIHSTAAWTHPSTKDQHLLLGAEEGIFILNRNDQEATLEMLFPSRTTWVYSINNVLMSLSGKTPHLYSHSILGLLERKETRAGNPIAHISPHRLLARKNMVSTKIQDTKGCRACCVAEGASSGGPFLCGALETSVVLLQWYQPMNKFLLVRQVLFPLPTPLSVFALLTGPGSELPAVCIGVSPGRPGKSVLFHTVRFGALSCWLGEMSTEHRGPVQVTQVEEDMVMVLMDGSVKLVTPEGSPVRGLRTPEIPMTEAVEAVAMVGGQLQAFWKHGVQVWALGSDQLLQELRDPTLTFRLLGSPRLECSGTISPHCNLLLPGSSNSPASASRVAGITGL

## Cc1c(N)cncc1-c1cc2cc(Nc3cc4n(n3)CC(=O)N(C)CC43CC3)ncc2c(C)n1 [Compound 101, 2′-((6-(5-amino-4-methylpyridin-3-yl)-8-methyl-2,7-naphthyridin-3-yl)amino)-6′-methyl-5′,6′-dihydrospiro[cyclopropane-1,4′-pyrazolo[1,5-d][1,4]diazepin]-7′(8′H)-one]
[1]
  % IL-2 increase relative to untreated cells: 421%
[2]
  Ki: 0.27 nM
